For one test, the target named is T1, MSRA on THP-1 cells (Homo sapiens, UniProt P21757).
T1 construct: Cells became adherent and expressed MSRA; endogenous in cells; host or cells: THP-1 (ECACC), differentiated with PMA
T1 sequence (P21757 1-451): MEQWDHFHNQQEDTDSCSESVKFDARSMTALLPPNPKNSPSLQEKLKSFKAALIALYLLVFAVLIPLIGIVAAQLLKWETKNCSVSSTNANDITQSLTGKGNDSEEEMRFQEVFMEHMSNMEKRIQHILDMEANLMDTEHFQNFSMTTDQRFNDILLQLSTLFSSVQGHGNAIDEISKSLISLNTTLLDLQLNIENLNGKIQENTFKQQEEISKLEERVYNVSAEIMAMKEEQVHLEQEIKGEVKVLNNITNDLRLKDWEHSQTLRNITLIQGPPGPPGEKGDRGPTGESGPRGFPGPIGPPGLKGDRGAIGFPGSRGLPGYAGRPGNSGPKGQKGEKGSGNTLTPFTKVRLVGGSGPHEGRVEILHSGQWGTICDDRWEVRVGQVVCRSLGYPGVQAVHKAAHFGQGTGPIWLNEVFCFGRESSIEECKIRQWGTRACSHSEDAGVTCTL
Nature of the test: Cell competition assay with 125I-imaging agent 2, THP-1 cells. The settings on record: competition for binding of 125I imaging agent 2, THP-1 cells, n=3. As for the experimental part:
Experiments were carried out on THP-1 cells. THP-1 cells (human monocyte ECACC) are suspension cells and were cultured in RPMI-1640 medium (Sigma, Cat no. R0883) containing penicillin/streptomycin (Sigma, Cat no. P4458), 2 mM glutamine (Sigma, Cat no. G7513) and 10% foetal bovine serum (FBS; Sigma, Cat no. F-7524). Cells were routinely passaged at 2×10^5 cells/ml in 162 cm^2 flasks. For assays with ^125I-acLDL, cells were seeded at 1×10^5 cells/well/ml in 24 well plates 4-6 days prior to assay and 400 ng/ml phorbol myristate acetate (PMA) added to differentiate THP-1 cells. Cells became adherent and expressed MSRA. For assays with ^125I imaging agent 2, THP-1 cells were seeded at 1.5×10^5 cells/well/ml in 24 well plates 4-6 days prior to assay with 400 ng/ml PMA.
(§1) Experiments were carried out in THP-1 and CHO-SRA cells to assess competition for binding of ^125I imaging agent 2 by acLDL, oxLDL and non-radioactive imaging agent 2.
THP-1 cells were cultured as described in Example 13 above.

In test [1] the target is T2, human SR-A on CHO-SRA cells (Homo sapiens, UniProt P21757).
T2 construct: expressed in transfected cells; host or cells: CHO (hamster ovary) cells, line CHO-SRA
T2 sequence (P21757 1-451): T1 sequence (P21757 1-451)
Nature of the test: Cell competition assay with 125I-imaging agent 2, CHO-SRA cells. As to conditions: competition for binding of 125I imaging agent 2, CHO-SRA cells, n=3; read-out: Mean IC50 (one site competition). How it is done: as §1
CHO-SRA cells are adherent hamster ovary cells expressing human SR-A and were cultured in Hams F-12 medium containing penicillin/streptomycin, 2 mM glutamine, HEPES buffer (7 ml per 500 ml media), 3% filter-sterilised lipoprotein-deficient serum (LPDS; Sigma cat. no. S5394), 40 μM compactin/mevastatin (Sigma cat. no. M2537), 250 μM mevalonic acid lactone (Sigma cat. no. M4667), and 3 μg/ml acetylated LDL (AcLDL; Biogenesis, Cat no. 5685-3404). For assays with ^125I-acLDL, cells were seeded at 1×10^5 cells/well/ml in 24 well plates 24 hours prior to assay. For assays with ^125I imaging agent 2, CHO-SRA cells were seeded at 1.5×10^5 cells/well/ml in 24 well plates 24 hours prior to assay.

Where two headings read alike, the source gives them in different places.

For `O=C(Nc1ccc(I)cc1)c1cc(Br)ccc1NS(=O)(=O)c1ccc(Cl)cc1` [non-radioactive imaging agent 2], the IC50 (in general, the concentration that inhibits the measured activity by half) at MSRA on THP-1 cells (read-out: Mean IC50 (two site kinetics, first value)) came to 0.079 ± 0.02 µM; at MSRA on THP-1 cells (read-out: Mean IC50 (two site kinetics, second value)) it was 14.5 ± 5.8 µM; in test [1] it was 30 ± 12 µM.
